In ChEMBL document CHEMBL1127516, “Synthesis and structure-activity relationships of deazaxanthines: analogs of potent A1- and A2-adenosine receptor antagonists” (J Med Chem, 1994):

Legend:
Adenosine A2 receptor = Adenosine A2 receptor (Rattus norvegicus, UniProt P29276+P30543); assay: Binding affinity to A2 adenosine receptor from rat striatal membrane in presence of [3H]5'-(N-ethylcarboximido)-adenosine
Adenosine receptor A1 = biological target: T1, Adenosine receptor A1 (Rattus norvegicus, UniProt P25099); assay: Binding affinity to A1 adenosine receptor from rat cortical membrane in presence of [3H]R-(phenylisopropyl)-adenosine
T1 sequence (P25099 whole entry): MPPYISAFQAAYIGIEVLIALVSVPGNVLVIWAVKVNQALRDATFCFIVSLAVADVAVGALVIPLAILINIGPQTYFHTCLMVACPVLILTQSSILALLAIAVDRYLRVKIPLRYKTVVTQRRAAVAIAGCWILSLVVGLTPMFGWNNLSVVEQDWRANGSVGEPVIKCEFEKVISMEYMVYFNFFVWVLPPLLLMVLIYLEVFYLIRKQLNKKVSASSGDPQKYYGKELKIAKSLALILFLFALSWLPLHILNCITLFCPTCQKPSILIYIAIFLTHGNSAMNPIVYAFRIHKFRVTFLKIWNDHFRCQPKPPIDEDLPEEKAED

[1] = biological target: Adenosine A2 receptor (Rattus norvegicus) (UniProt P29276+P30543); assay: Percent inhibition of [3H]5'-(N-ethylcarboximido)-adenosine (NECA) binding to A2 adenosine receptor; format: protein assay; parameters: concentration or dose not given beside the values; conditions: concentration not given here
[2] = biological target: T2, Adenosine receptor A1 (Rattus norvegicus) (UniProt P25099); assay: Percent inhibition of [3H]R-(phenylisopropyl)-adenosine (PIA) binding to A1 adenosine receptor; conditions: concentration not given here
T2 sequence (whole entry): T1 sequence (P25099 whole entry)

Structure (SMILES): Cn1c(=O)c2c(cc(-c3ccc4ccccc4c3)n2C)n(C)c1=O
- Ki (Adenosine A2 receptor): 1100 nM
- Ki (Adenosine receptor A1): 270 nM

Structure (SMILES): Cn1c(=O)c2nc(-c3ccccc3)[nH]c2n(C)c1=O [8-PHENYL THEOPHYLLINE]
- Ki (Adenosine A2 receptor): 830 nM

Structure (SMILES): CCCn1c(=O)[nH]c2cc[nH]c2c1=O
- Ki (Adenosine A2 receptor): 18000 nM
- Ki (Adenosine receptor A1): 1700 nM

Structure (SMILES): CCCn1c(=O)c2[nH]c(N(C)C)cc2n(CCC)c1=O
- Ki (Adenosine A2 receptor): 16000 nM
- Ki (Adenosine receptor A1): 130 nM

Structure (SMILES): CCCn1c(=O)c2[nH]ccc2n(CCC)c1=O
- Ki (Adenosine A2 receptor): 5100 nM
- Ki (Adenosine receptor A1): 440 nM

Structure (SMILES): CCCn1c(=O)c2c(nc(-c3ccccc3)n2C)n(CCC)c1=O
- Ki (Adenosine A2 receptor): 15000 nM

Structure (SMILES): Cn1c(=O)c2[nH]c(-c3cccc4ccccc34)cc2n(C)c1=O
- Ki (Adenosine A2 receptor): > 30000 nM
- Ki (Adenosine receptor A1): > 30000 nM
- inhibition [1]: 1.2%
- inhibition [2]: 33%

Structure (SMILES): Cn1c(=O)c2c(ccn2C)n(C)c1=O
- Ki (Adenosine A2 receptor): 72000 nM
- Ki (Adenosine receptor A1): 32000 nM

Structure (SMILES): Cn1c(=O)c2cc(-c3ccccc3)n(C)c2n(C)c1=O
- Ki (Adenosine A2 receptor): 40000 nM
- Ki (Adenosine receptor A1): 11000 nM

Structure (SMILES): Cn1c(=O)c2[nH]c(-c3ccccc3)cc2n(C)c1=O
- Ki (Adenosine A2 receptor): 510 nM
- Ki (Adenosine receptor A1): 47 nM

Structure (SMILES): CCCn1c(=O)c2c(ncn2C)n(CCC)c1=O
- Ki (Adenosine A2 receptor): 10000 nM

Structure (SMILES): Cn1c(=O)c2[nH]c(-c3ccc4ccccc4c3)cc2n(C)c1=O
- Ki (Adenosine A2 receptor): > 500 nM
- Ki (Adenosine receptor A1): 26 nM
- inhibition [1]: 34%

Structure (SMILES): CCCn1c(=O)c2[nH]c(-c3ccccc3)cc2n(CCC)c1=O
- Ki (Adenosine A2 receptor): 450 nM
- Ki (Adenosine receptor A1): 13 nM

Structure (SMILES): Cn1c(=O)c2[nH]c(/C=C/c3ccccc3)cc2n(C)c1=O
- Ki (Adenosine A2 receptor): 640 nM
- Ki (Adenosine receptor A1): 165 nM

Structure (SMILES): Cn1c(=O)c2c(cc(/C=C/c3ccccc3)n2C)n(C)c1=O
- Ki (Adenosine A2 receptor): 260 nM
- Ki (Adenosine receptor A1): 2600 nM

Structure (SMILES): CCCn1c(=O)c2c(ccn2C)n(CCC)c1=O
- Ki (Adenosine A2 receptor): 13000 nM
- Ki (Adenosine receptor A1): 2300 nM

Structure (SMILES): Cn1c(=O)c2c(cc(-c3cccc4ccccc34)n2C)n(C)c1=O
- Ki (Adenosine A2 receptor): > 30000 nM
- Ki (Adenosine receptor A1): 9200 nM
- inhibition [1]: 22%

Structure (SMILES): Cn1c(=O)c2cc[nH]c2n(C)c1=O
- Ki (Adenosine A2 receptor): > 250000 nM
- Ki (Adenosine receptor A1): 43000 nM
- inhibition [1]: 39%

Structure (SMILES): Cn1c(=O)[nH]c2cc[nH]c2c1=O
- Ki (Adenosine A2 receptor): 34000 nM
- Ki (Adenosine receptor A1): 2900 nM

Structure (SMILES): Cn1c(=O)c2c(cc(-c3cccc4ccccc34)n2O)n(C)c1=O
- Ki (Adenosine A2 receptor): > 100000 nM
- Ki (Adenosine receptor A1): > 30000 nM
- inhibition [1]: 38%
- inhibition [2]: 47%

Structure (SMILES): CCCn1c(=O)[nH]c2cc(-c3ccccc3)[nH]c2c1=O
- Ki (Adenosine A2 receptor): 1200 nM
- Ki (Adenosine receptor A1): 39 nM

Structure (SMILES): Cn1c(=O)c2cc(-c3ccccc3)[nH]c2n(C)c1=O
- Ki (Adenosine A2 receptor): 12000 nM
- Ki (Adenosine receptor A1): 3100 nM

Structure (SMILES): Cn1c(=O)c2c(cc(/C=C/c3ccccc3)n2O)n(C)c1=O
- Ki (Adenosine A2 receptor): 1800 nM
- Ki (Adenosine receptor A1): 560 nM

Structure (SMILES): Cn1c(=O)c2c(cc(-c3ccc4ccccc4c3)n2O)n(C)c1=O
- Ki (Adenosine A2 receptor): 1000 nM
- Ki (Adenosine receptor A1): 220 nM

Structure (SMILES): Cn1c(=O)c2c(nc(-c3ccccc3)n2C)n(C)c1=O
- Ki (Adenosine A2 receptor): 25000 nM

Structure (SMILES): Cn1c(=O)[nH]c2cc(-c3ccccc3)[nH]c2c1=O
- Ki (Adenosine A2 receptor): 2000 nM
- Ki (Adenosine receptor A1): 97 nM

Structure (SMILES): Cn1c(=O)c2[nH]ccc2n(C)c1=O
- Ki (Adenosine A2 receptor): 12000 nM
- Ki (Adenosine receptor A1): 5400 nM

Structure (SMILES): Cn1c(=O)c2c(cc(-c3ccccc3)n2C)n(C)c1=O
- Ki (Adenosine A2 receptor): 14000 nM

Structure (SMILES): CCCn1c(=O)c2c(cc(-c3ccccc3)n2C)n(CCC)c1=O
- Ki (Adenosine A2 receptor): 5200 nM
